Data as given in PubChem BioAssay (NCI).
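In this assay, cells in 96-well plates receive the compound at five concentrations for 48 hours. Endpoints are linearly interpolated between the surrounding concentrations. GI50 is the concentration that inhibits growth by half. TGI denotes the concentration required for complete inhibition of growth.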

Columns and labels:
Test in all cases: inhibition of tumour cell growth, NCI panel, 48 h
[1] = test system: CCRF-CEM leukemia
[2] = test system: SF-539 CNS
[3] = test system: RPMI-8226 leukemia
[4] = test system: A498 renal
[5] = test system: TK-10 renal
[6] = test system: 786-0 renal
[7] = test system: SN12C renal
[8] = test system: UACC-62 melanoma
[9] = test system: CAKI-1 renal
[10] = test system: UACC-257 melanoma

| SMILES | TGI [1] | TGI [2] | TGI [3] | TGI [4] | TGI [5] | TGI [6] | TGI [7] | TGI [8] | TGI [9] | TGI [10] | GI50 [1] | GI50 [2] | GI50 [3] | GI50 [4] | GI50 [5] | GI50 [6] | GI50 [7] | GI50 [8] | GI50 [9] | GI50 [10] |
| --- | --- | --- | --- | --- | --- | --- | --- | --- | --- | --- | --- | --- | --- | --- | --- | --- | --- | --- | --- | --- |
| Cc1cc2nc3c(=O)n(C)c(=O)nc-3n(-c3ccc(Cl)cc3)c2cc1C | 45.4 µM | 25.4 µM | 26.4 µM | 89.8 µM | 92 µM | 43.3 µM | 18.6 µM | 10.6 µM | 48.8 µM | 20 µM | – | – | – | – | – | – | – | – | – | – |
| O=C(Nc1ccc(Cl)cc1)Nc1ccc(Cl)c(Cl)c1 | 7.8 µM | 60.4 µM | 4.73 µM | 7.94 µM | > 100 µM | > 100 µM | > 100 µM | > 100 µM | > 100 µM | > 100 µM | 2.25 µM | 2.96 µM | 1.61 µM | 3.05 µM | 7.64 µM | 4.43 µM | 3.42 µM | 5.59 µM | 2.96 µM | 3.76 µM |
| CC1=C2C(O)C(C(C)CO)C(O)CC2(C)C(O)CC1 (configuration not stated) | > 100 µM | > 100 µM | > 100 µM | > 100 µM | > 100 µM | > 100 µM | > 100 µM | > 100 µM | > 100 µM | > 100 µM | – | – | – | – | – | – | – | – | – | – |
| c1ccc2c(c1)[I+]c1ccccc1-2 | > 50 µM | > 50 µM | > 50 µM | > 50 µM | > 50 µM | > 50 µM | > 50 µM | > 50 µM | > 50 µM | > 50 µM | > 50 µM | 40.6 µM | 31.7 µM | 27.7 µM | > 50 µM | > 50 µM | > 50 µM | > 50 µM | > 50 µM | > 50 µM |
| CC(C)c1ccc(Cc2cnc(NC(=O)c3cc(Br)cs3)s2)cc1 | > 100 µM | 5.64 µM | > 100 µM | 4.67 µM | 19.4 µM | > 100 µM | > 100 µM | > 100 µM | > 100 µM | > 100 µM | 4.08 µM | 2.04 µM | 3.6 µM | 0.242 µM | 2.72 µM | 4.55 µM | 4.21 µM | 1.38 µM | 1.16 µM | 7.6 µM |
| CC(=O)Oc1cc(C)ccc1[C@]1(C)CC[C@H](C)/C1=C\Br | 10.1 µM | 5.1 µM | 8.09 µM | 17.1 µM | 12.5 µM | 14.3 µM | 25.3 µM | 19.7 µM | 14.3 µM | 20.8 µM | 2.75 µM | 2.32 µM | 2.71 µM | 5.2 µM | 3.6 µM | 4.09 µM | 9.24 µM | 5.98 µM | 3.53 µM | 8.28 µM |
| O=C1C=C(c2c(O)ccc3ccccc23)c2ccccc2C1=O | 7.55 µM | 4.36 µM | 15.7 µM | 13.4 µM | 25.8 µM | 4.89 µM | 12.2 µM | 5.48 µM | 24 µM | 6.49 µM | – | – | – | – | – | – | – | – | – | – |
| CCOc1ccc(/C=C/C(=O)c2ccccc2)cc1 | 62.4 µM | 45.5 µM | 20.5 µM | 33.2 µM | 34.9 µM | 39.1 µM | 37 µM | 36.5 µM | 30.7 µM | 33.1 µM | 17.9 µM | 19.4 µM | 3.95 µM | 16.2 µM | 17.9 µM | 20.6 µM | 18.3 µM | 17 µM | 14.1 µM | 16.1 µM |
| COc1ccc(NC(=O)C2C(=O)N(c3ccc(OC)cc3)C(=O)/C2=N/O)cc1 (configuration not stated) | > 100 µM | 36.7 µM | > 100 µM | 59.3 µM | 52.3 µM | 41.9 µM | 71.9 µM | 45.8 µM | > 77.3 µM | > 80.5 µM | – | – | – | – | – | – | – | – | – | – |
| NC(N)=N/N=C(/c1nc2ccc([N+](=O)[O-])cc2[nH]c1=O)C(O)c1ccco1 (configuration not stated) | > 100 µM | > 100 µM | > 100 µM | > 100 µM | > 100 µM | > 100 µM | > 100 µM | > 100 µM | > 100 µM | > 100 µM | – | – | – | – | – | – | – | – | – | – |
| O=c1ccn(C2OC(CO)C(O)C2O)c(=O)[nH]1 (configuration not stated) | > 1000 µM | > 1000 µM | > 1000 µM | > 1000 µM | > 1000 µM | > 1000 µM | > 1000 µM | > 1000 µM | > 1000 µM | > 1000 µM | > 1000 µM | > 1000 µM | > 1000 µM | – | > 1000 µM | > 1000 µM | > 1000 µM | > 1000 µM | – | – |
